Measurements as given in PubChem BioAssay (NCI).
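1) Cells in 96-well plates. 2) Compound, 48 h, 5 concentrations. 3) Linear interpolation between surrounding doses. 4) Unreached endpoint = highest concentration. Abbreviation: GI50, concentration required for 50% inhibition of growth. TGI: concentration producing complete growth inhibition.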

Legend:
Assay in all cases: NCI-60 cell line screen, 48 h
[1] = tested on: UACC-257 melanoma
[2] = tested on: EKVX NSCLC
[3] = tested on: SK-MEL-5 melanoma
[4] = tested on: 786-0 renal
[5] = tested on: HCT-116 colon
[6] = tested on: HOP-92 NSCLC
[7] = tested on: HL-60(TB) leukemia
[8] = tested on: ACHN renal
[9] = tested on: COLO 205 colon
[10] = tested on: CAKI-1 renal

| SMILES | GI50 [1] | TGI [1] | GI50 [2] | TGI [2] | GI50 [3] | TGI [3] | GI50 [4] | TGI [4] | GI50 [5] | TGI [5] | GI50 [6] | TGI [6] | GI50 [7] | TGI [7] | GI50 [8] | TGI [8] | GI50 [9] | TGI [9] | GI50 [10] | TGI [10] |
| --- | --- | --- | --- | --- | --- | --- | --- | --- | --- | --- | --- | --- | --- | --- | --- | --- | --- | --- | --- | --- |
| CCN1CCN(Cc2ccc3cc(C(=O)Nc4cc(NC(=O)c5ccc6c(c5)OCCO6)ccc4F)ccc3n2)CC1 | 0.133 µM | 10.5 µM | 0.112 µM | 1.79 µM | 0.108 µM | 0.756 µM | 0.0604 µM | 13.1 µM | 0.0354 µM | 13 µM | 0.0555 µM | 0.557 µM | 0.0238 µM | 0.182 µM | 0.0274 µM | 0.267 µM | 0.0553 µM | 1.51 µM | 0.018 µM | 0.103 µM |
| N=C1N=Nc2nc(C3(c4nc5n(c4O)C(=N)N=N5)Cc4ccccc4C3=O)c(O)n21 (configuration not stated) |  | > 100 µM |  | > 100 µM |  | > 100 µM |  | > 100 µM |  | > 100 µM |  | > 100 µM |  | > 100 µM |  | > 100 µM |  | > 100 µM |  | > 100 µM |
| Cc1cc(Cl)ccc1Nc1nc(C(F)(F)F)ccc1C(=O)N/N=C/c1ccc(F)cc1 | 1.33 µM | 3.67 µM | 1.13 µM | 8.17 µM | 1.58 µM | 3.13 µM | 1.45 µM | 5.93 µM | 1.4 µM | 11.1 µM | 1.75 µM | 6.14 µM | 1.77 µM | 5.01 µM | 2.48 µM | 10.8 µM | 1.61 µM | 3.64 µM | 1.82 µM | 6.55 µM |
| C=C1CCC2C(C)(CO)C(O)CCC2(C)C1CC(O)C1=CCOC1=O (configuration not stated) |  | > 100 µM |  | > 100 µM |  | > 100 µM |  | 71.6 µM |  | 73.3 µM |  | > 100 µM |  | 85.9 µM |  | > 100 µM |  | > 100 µM |  | > 100 µM |
| CC1=C(C(=O)Nc2ccc(Cl)c(Cl)c2)C(c2cccc(O)c2)NC(=S)N1 (configuration not stated) | 12.5 µM | > 50 µM | 9.38 µM | 21.4 µM | 8.12 µM | 15.4 µM | 9.47 µM | 20 µM | 18.1 µM | > 50 µM | 13.6 µM | 35.2 µM | 11.2 µM | 44.2 µM | 9.23 µM | 19.7 µM | 7.09 µM | 14.6 µM | 14.4 µM | 38.5 µM |
| COc1ccc2c(c1)N(CCC1CCCCN1C)c1ccccc1S2 (configuration not stated) |  | 17.3 µM |  | 36.5 µM |  | 24.8 µM |  | 29.5 µM |  | 27.2 µM |  | 22.6 µM |  | 24.8 µM |  | 28.1 µM |  | 30.9 µM |  | 21.5 µM |
| COC(=O)/C(Br)=C/c1c[nH]c2ccc(Br)cc12 | 24.1 µM | 69.4 µM | 12.3 µM | 29.7 µM | 12.2 µM | 24.6 µM | 13 µM | 35.9 µM | 12.5 µM | 27.4 µM | 2.13 µM | 15.7 µM | 61.3 µM | > 100 µM | 11.8 µM | 43.2 µM | 12.5 µM | 25.1 µM | 12.9 µM | 29.1 µM |
| Cc1cc(Cl)ccc1Nc1nc(C(F)(F)F)ccc1C(=O)N/N=C/c1c(Cl)cccc1Cl | 0.393 µM | > 100 µM | 0.211 µM | 2.97 µM | 0.573 µM | 2.44 µM | 0.292 µM | 1.08 µM | 0.287 µM |  | 0.221 µM | 0.664 µM | 0.229 µM | 0.53 µM | 0.298 µM | 2.03 µM | 0.358 µM | 1.24 µM | 0.0557 µM | 3.28 µM |
| N#Cc1ccccc1/C=N/O |  | > 100 µM |  | > 100 µM |  | > 100 µM |  | > 100 µM |  | > 61.6 µM |  | > 100 µM |  | > 62.2 µM |  | > 100 µM |  | > 74.9 µM |  | > 100 µM |
| O=C(Nc1ccc(Cl)cc1Cl)/C(Cl)=C1/Sc2ccccc2NC1=O |  |  |  | > 100 µM |  | 45.8 µM |  | > 100 µM |  | 66.4 µM |  | 51.6 µM |  | 53.8 µM |  | 78.9 µM |  | > 100 µM |  | > 100 µM |
| Cc1ccc(S(=O)(=O)NC(=O)Nc2nc(Cl)cc(Cl)n2)cc1 |  | > 100 µM |  | > 100 µM |  | > 100 µM |  | > 100 µM |  | > 100 µM |  | > 100 µM |  | > 100 µM |  | > 100 µM |  | > 100 µM |  | > 100 µM |
| O=C(Nc1ncc(Cc2ccc(Cl)cc2)s1)c1ccc2c(c1)OCCO2 | 5.8 µM | > 100 µM | 0.412 µM | > 100 µM | 0.0539 µM | 1.42 µM | 0.0728 µM | > 100 µM | 0.0419 µM | > 100 µM | 2.12 µM | > 100 µM | 0.0537 µM |  | 0.0645 µM | > 54.5 µM | 0.0492 µM | 1.19 µM | 0.0547 µM | 39 µM |
| C=CCn1c(=S)sc2c(=O)[nH]cnc21 |  | > 100 µM |  | > 100 µM |  | > 100 µM |  | > 100 µM |  | > 100 µM |  | > 100 µM |  | > 100 µM |  | > 100 µM |  | > 100 µM |  | > 100 µM |
| Cc1ccccc1C(C#N)/C(=N/NC(=O)C(=O)NN)C(=O)Nc1cccc(C(F)(F)F)c1 (configuration not stated) |  | > 100 µM |  | > 100 µM |  | > 100 µM |  | > 100 µM |  | > 100 µM |  | > 100 µM |  | > 100 µM |  | > 100 µM |  | > 100 µM |  | > 100 µM |
| COc1cc([C@@H]2c3cc4c(cc3[C@@H](NC(=O)c3ccc([N+](=O)[O-])cc3)C3COC(=O)[C@@H]32)OCO4)cc(OC)c1O (some centres not stated) |  | 59.6 µM |  | 6.55 µM |  | 3.53 µM |  | 1.4 µM |  | 5.32 µM |  | 40.2 µM |  | 0.407 µM |  | 1.58 µM |  | 10.4 µM |  | 8.42 µM |
| CC(=O)O[C@@H]1CC(=O)O[C@@H]2C[C@@H](CC/C(Cl)=C/C/C=C\1C)O[C@@H]2CO | > 25 µM | > 25 µM | > 15 µM | > 25 µM | > 25 µM | > 25 µM | > 25 µM | > 25 µM | > 25 µM | > 25 µM | > 25 µM | > 25 µM | > 25 µM | > 25 µM | > 25 µM | > 25 µM | > 25 µM | > 25 µM | > 25 µM | > 25 µM |
